Results as given in patent US8980879B2 (AbbVie Inc., priority 2013, dated 2015).
Marks after values point to notes of the source that are not given here.

What was measured:
BRD4 (BDI_K57-E168) = target: T1, BRD4 (BDI_K57-E168) (Homo sapiens, UniProt O60885); experiment: TR-FRET bromodomain binding assay, BRD4 first bromodomain; conditions: His-tagged BD1, 100 nM Alexa647 probe; assay protocol D or F as given per row in c1; Ki calculated from IC50
T1 construct: BD1: amino acids K57-E168; made in house

[1] = tested on: breast cancer cell line MX-1; experiment: MX-1 cell line proliferation assay; type: cell-based; conditions: Homo sapiens, MX1; MX-1 cells, 3-day (72 h) proliferation, Cell Titer Glo; read-out: Cellular proliferation: EC50
Outline: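 MX-1 breast cancer cells (5000/well, RPMI 1640 + 10% FBS) adhered overnight, then got compound at final 3 μM down to 0.0001 μM (3-fold series) for a 3-day assay at 37 °C. Read-out: CellTiter-Glo luminescence normalized to DMSO; EC50 from sigmoidal fit.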

[2] = tested on: OPM-2 human multiple myeloma cancer xenograft; experiment: Xenograft tumor growth inhibition assay (OPM-2); type: in vivo, mice; conditions: for % TGI: QDx21, female SCID-beige mice; for % removed from study: QDx21, removed due to morbidity or weight loss in excess of 20%
Experimental: Xenograft Tumor Growth Inhibition Assay
The effect of compounds of the examples to inhibit the growth of OPM-2 xenograft tumors implanted in mice was evaluated. A suspension of cancer cells (5×10^6 per 0.1 mL) prepared in RPMI culture medium (Invitrogen, Carlsbad, Calif.) was diluted 1:1 with a solution of Matrigel™ (BD Biosciences, Franklin Lakes, N.J.) and inoculated subcutaneously into the right hind flank of female SCID-beige (Charles River Labs) mice. […] Administration of compound or vehicle was initiated on the day following randomization and continued for 21 days. Tumors were measured twice a week throughout the treatment period using a pair of calipers and tumor volumes were calculated according to the formula V=L×W^2/2 (V: volume, mm^3; L: length, mm. W: width, […]) Tumor growth inhibition was calculated based on the mean tumor volume measured on the first day that the mean volume of the vehicle group exceeded 2000 mm^3 according to the formula % TGI=100−mean tumor volume of treatment group/mean tumor volume of control group×100.

BRD4 (BDII_E352-M457) = target: T2, BRD4 (BDII_E352-M457) (Homo sapiens, UniProt O60885); experiment: TR-FRET bromodomain binding assay, BRD4 second bromodomain
T2 construct: protocol; made in house

[3] = tested on: LPS induced IL-6 production; experiment: LPS (lipopolysaccharide) induced IL-6 production mouse assay; type: in vivo, mice; conditions: SCID female mice, 3 mg/kg oral 1 h before LPS 2.5 mg/kg ip, serum IL-6 2 h after LPS; p<0.05
Experimental: LPS (Lipopolysaccharide) Induced IL-6 Production Mouse Assay
Compounds of the Examples listed in Table 2 were assayed for their ability to inhibit LPS (lipopolysaccharide) induced IL-6 (Interleukin-6) production in mice. Fox Chase SCID® female mice (Charles Rivers Labs, 5 per group) or CD1 female mice (5 mice per group) received an intraperitoneal challenge of lipopolysaccharide (2.5 mg/kg, L2630 E. coli 0111:B4) one hour after oral administration of compounds. Mice were euthanized 2 hours after lipopolysaccharide injection, blood was removed by cardiac puncture, and then the serum harvested from the blood samples was frozen at −80° C. On the day of the assay the serum samples were brought to room temperature and then diluted 1:20 in phosphate-buffered saline containing 2% bovine serum albumin. Interleukin-6 measurements were performed using a cytokine assay from Meso Scale Discovery (Gaithersburg, Md.) for mouse serum analysis according to the manufacturer's protocol and read on a SECTOR Imager 6000 (Meso Scale Discovery, Gaithersburg, Md.) instrument. Statistical analysis was performed using Prism software (version 5.0) incorporating Dunnett's one way ANOVA. The IL-6 mean and standard deviation of the group of vehicle treated animals were compared with the IL-6 mean and standard deviation of the group treated with drug. A p value <0.05 means that there is less than a 5% probability that the mean values in the two groups are equal.

Row | SMILES | Ki (BRD4 (BDI_K57-E168)) | EC50 [1] | % TGI ([2]; 3.75 mg/kg PO) | % removed from study ([2]; 3.75 mg/kg PO) | % TGI ([2]; 7.5 mg/kg PO) | % removed from study ([2]; 7.5 mg/kg PO) | Ki (BRD4 (BDII_E352-M457)) | % inhibition at 3 mg/kg (LPS induced IL-6 production) [3] | % TGI ([2]; 2.5 mg/kg PO) | % removed from study ([2]; 2.5 mg/kg PO) | % TGI ([2]; 5.0 mg/kg PO) | % removed from study ([2]; 5.0 mg/kg PO)
1 | Cn1cc2c3c(c[nH]c(=O)c31)CN(c1ccc(F)cc1)c1ccc(CS(C)(=O)=O)cc1-2 [Example 4] | 0.61 nM | 1.39 nM | 68*** % | 11% | 84*** % | 44% | 2.15 nM | 70% |  |  |  | 
2 | Cn1cc2c3c(c[nH]c(=O)c31)CN(c1ccc(F)cc1F)c1ccc(CS(C)(=O)=O)cc1-2 [Example 5] | 1.76 nM | 3.95 nM |  |  |  |  | 1.95 nM | 71% | 66*** % | 0% | 81*** % | 44%
